Laboratory results taken from patent US8648083B2, “Method of treating diabetic hyperlipidemia or hyperlipidemia with carbamoyloxy arylalkanoyl arylpiperazine compounds” (SK Biopharmaceuticals Co., Ltd., priority 2010, dated 2014).
Structures can show the parent of a compound that is named as a salt.

How the values were obtained:
[1] = target: T1, rabbit reticulocyte cells-induced 15-lipoxygenase (Oryctolagus cuniculus, UniProt P12530); experiment: In-vitro test on inhibitory effect on 15-lipoxygenase (13-HPODE formation, absorbance 660 nm); type: biochemical; conditions: compound 10 uM; 260 μM linolenic acid; 4° C.; PBS pH 7.4; read-out: 15-lipoxygenase Inhibitory level at 10 uM (%)
T1 construct: rabbit reticulocyte cells-induced 15-lipoxygenase as a test group; from tissue; host or cells: rabbit reticulocytes
T1 sequence (P12530 1-663): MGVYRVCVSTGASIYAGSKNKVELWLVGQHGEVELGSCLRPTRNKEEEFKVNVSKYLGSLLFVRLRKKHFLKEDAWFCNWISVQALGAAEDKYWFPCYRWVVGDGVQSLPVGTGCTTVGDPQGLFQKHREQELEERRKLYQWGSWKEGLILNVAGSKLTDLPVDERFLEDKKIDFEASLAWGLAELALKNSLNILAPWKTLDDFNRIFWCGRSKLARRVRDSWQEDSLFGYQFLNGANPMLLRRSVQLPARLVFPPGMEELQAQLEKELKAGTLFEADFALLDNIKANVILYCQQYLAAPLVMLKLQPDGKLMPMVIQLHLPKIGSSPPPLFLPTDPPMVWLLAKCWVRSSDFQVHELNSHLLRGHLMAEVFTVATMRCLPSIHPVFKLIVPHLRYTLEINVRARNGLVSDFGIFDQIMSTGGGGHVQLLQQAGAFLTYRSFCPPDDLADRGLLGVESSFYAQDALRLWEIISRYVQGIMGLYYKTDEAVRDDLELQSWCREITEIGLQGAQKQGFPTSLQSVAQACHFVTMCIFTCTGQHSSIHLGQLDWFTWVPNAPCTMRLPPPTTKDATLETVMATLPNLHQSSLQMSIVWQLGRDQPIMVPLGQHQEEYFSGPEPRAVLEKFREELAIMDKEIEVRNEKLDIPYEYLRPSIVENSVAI
Procedure: (§1) 12-lipoxygenase reacts with arachidonate as a substrate to produce 12-hydroxyeicosatetrenoate (12-HETE) as a product. Accordingly, 12-lipoxygenase activity is evaluated by measuring an amount of generated 12-HETE by spectrometry. Also, 15-lipoxygenase reacts with a linolenic acid as a substrate to produce 13-hydroperoxy-9,11-octadecadienoic acid (13-HPODE) as a product. Accordingly, 15-lipoxygenase activity is evaluated by measuring an amount of generated 13-HPODE by spectrometry.
15-lipoxygenase activity was measured when a concentration of each of the compounds was 10 μM. Each sample was pretreated by using a buffer solution buffer solution (phosphate buffered saline buffer, pH 7.4) at a temperature of 4° C. for 15 minutes, and then 260 μM linolenic acid (a concentration thereof was controlled to be 260 μM during reaction) was added and reacted at a temperature of 4° C. for 10 minutes, and an amount of 13-HPODE as a generated product was measured by absorbance at a wavelength of 660 nm.

[2] = target: T2, human platelet-induced 12-lipoxygenase (Homo sapiens, UniProt P18054); experiment: In-vitro test on inhibitory effect on 12-lipoxygenase (12-HETE formation, absorbance 570 nm); type: biochemical; conditions: compound 10 uM; 30 μM arachidonate; 25° C.; Tris-HCl pH 7.4; read-out: 12-lipoxygenase Inhibitory level at 10 uM (%)
T2 construct: human platelet-induced 12-lipoxygenase as a negative control; from tissue; host or cells: human platelets
T2 sequence (P18054 1-663): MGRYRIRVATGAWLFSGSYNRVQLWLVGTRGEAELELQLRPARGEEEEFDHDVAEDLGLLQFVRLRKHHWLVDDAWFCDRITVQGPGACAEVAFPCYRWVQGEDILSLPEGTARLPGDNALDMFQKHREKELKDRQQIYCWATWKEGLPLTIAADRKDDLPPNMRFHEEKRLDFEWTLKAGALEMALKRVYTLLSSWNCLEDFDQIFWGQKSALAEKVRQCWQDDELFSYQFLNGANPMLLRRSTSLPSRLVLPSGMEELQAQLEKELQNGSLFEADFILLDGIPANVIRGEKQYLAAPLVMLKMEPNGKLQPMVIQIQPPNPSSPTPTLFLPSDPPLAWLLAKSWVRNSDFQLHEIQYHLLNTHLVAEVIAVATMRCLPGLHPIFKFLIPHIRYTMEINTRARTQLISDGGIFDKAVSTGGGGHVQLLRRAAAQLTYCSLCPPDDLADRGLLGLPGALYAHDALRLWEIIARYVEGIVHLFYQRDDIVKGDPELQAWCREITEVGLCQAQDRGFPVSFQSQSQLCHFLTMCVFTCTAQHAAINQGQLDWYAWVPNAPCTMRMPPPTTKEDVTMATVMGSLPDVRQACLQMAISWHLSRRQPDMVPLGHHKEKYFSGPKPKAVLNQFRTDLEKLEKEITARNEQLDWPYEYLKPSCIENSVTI
Procedure: as §1
12-lipoxygenase activity was measured when a concentration of each of the compounds was 10 μM. Each sample was pretreated by using a buffer solution (50 mM Tris-HCl, 0.1% Triton X-100, pH 7.4) at a temperature of 25° C. for 15 minutes and then, 30 μM arachidonate (a concentration thereof was controlled to be 30 μM during reaction) was added thereto and reacted at a temperature of 25° C. for 15 minutes, and an amount of 12-HETE as a generated product was measured by absorbance at a wavelength of 570 nm.

[3] = system: Sprague-Dawley rats having diabetes induced by streptozotocin; experiment: Pharmaceutical effect test on diabetic hyperlipidemia in diabetes animal model (streptozotocin); type: in vivo, rat; conditions: 200 mg/kg orally once a day for four weeks
Procedure: Sprague-Dawley rats (n=21, 4 weeks, male) were used as lab models (Central Lab. Animal Inc.). Rats (n=14) having diabetes induced by intraperitoneal administration of 50 mg/kg of streptozotocin were used as a test group, and rats (n=7) intraperitoneally administered with only a solvent (100 mM citric acid buffer solution, pH 4.5) were used as a control. Typically, streptozotocin destroys beta cells of the pancreas to induce diabetes, and thus, blood sugar is increased and amounts of cholesterol and triglycerides in serum are increased. 2 days after the administration of streptozotocin, diabetes was induced in the test group. The test group was divided into two groups, and rats of one group were orally administered once a day with 200 mg/kg of (R)-carbamic acid 3-[4-(3,4-dimethoxy-phenyl)-piperazine-1-yl]-3-oxo-1-phenyl-propyl ester for four weeks. The other group was orally administered with 30% polyethylene glycol (PEG) instead of the compound.
After the 4-week administration of the compound and PEG, amounts of total cholesterol and triglycerides in serum of each of the groups were measured and results thereof are shown in FIGS. 1 and 2. In order to measure the amounts of total cholesterol and triglycerides, serum was isolated from the rats and a Hitachi 7600 auto-analyzer was used.

fibronectin = experiment: Pharmaceutical effect test on diabetic nephropathy: fibronectin expression in renal cortex by real-time RT-PCR; type: in vivo, rat; conditions: streptozotocin-diabetic rats; 200 mg/kg orally once a day for 4 weeks; untreated diabetic 1.4±0.1 times control
Procedure: Sprague-Dawley rats (n=21, 4 weeks, male) were used as lab models (Central Lab. Animal Inc.). Rats (n=14) having diabetes induced by intraperitoneal administration of 50 mg/kg of streptozotocin were used as a test group, and rats (n=7) intraperitoneally administered with only a solvent (100 mM citric acid buffer solution, pH 4.5) were used as a control. Typically, in rats having diabetes induced by streptozotocin, diabetic nephropathy is induced by hyperglycemia, and one of the symptoms is renal fibrosis, and gene expression of an extracellular matrix protein such as fibronectin is increased. 2 days after the administration of streptozotocin, diabetes was induced in the test group. […]
After the 4-week administration of the compound and PEG, renal cortex tissues were extracted from each of the groups and then, an expression level of fibronectin was measured by a real-time reverse transcription polymerase chain reaction (that is, an amount of mRNA transcribed from fibronectin) (see FIG. 3). The expression level of fibronectin was measured by using a forward primer (5′-[…]-3′; SEQ ID NO: 1) and a reverse primer (5′-[…]-3′; SEQ ID NO: 2). […] For the control, mRNA transcribed from a beta actin gene was used, and measurement results were indicated by dividing an amount of mRNA of fibronectin quantified from the RT-PCT results by an amount of mRNA of beta actin. […]

PAI-1 = experiment: Pharmaceutical effect test on inflammatory reaction in diabetic nephropathy model: PAI-1 mRNA in renal cortex; type: in vivo, rat; conditions: streptozotocin-diabetic rats; 200 mg/kg orally once a day for 4 weeks; untreated diabetic 1.8±0.1 times control
MCP-1 = experiment: Pharmaceutical effect test on inflammatory reaction in diabetic nephropathy model: MCP-1 mRNA in renal cortex; type: in vivo, rat; conditions: streptozotocin-diabetic rats; 200 mg/kg orally once a day for 4 weeks; untreated diabetic 3.4±1.0 times control
TGF-β1 = experiment: Pharmaceutical effect test on inflammatory reaction in diabetic nephropathy model: TGF-β1 mRNA in renal cortex; type: in vivo, rat; conditions: streptozotocin-diabetic rats; 200 mg/kg orally once a day for 4 weeks; untreated diabetic 1.6±0.2 times control

inhibition at 10 µM [1] [%]	inhibition at 10 µM [2] [%]	SMILES	also measured
114	11	NC(=O)O[C@H](CC(=O)N1CCN(c2ccc(Cl)cc2)CC1)c1ccccc1 [Example 6, (R)-carbamic acid 3-[4-(4-chloro-phenyl)-piperazine-1-yl]-3-oxo-1-phenyl-propyl ester]	–
85	-8	NC(=O)OC(CC(=O)N1CCN(c2ccc3c(c2)OCO3)CC1)c1ccccc1 (centres unmarked) [Example 3, carbamic acid 3-(4-benzo[1,3]dioxol-5-yl-piperazine-1-yl)-3-oxo-1-phenyl-propyl ester]	–
73	10	COc1ccc(N2CCN(C(=O)CC(OC(N)=O)c3ccccc3)CC2)cc1OC (centres unmarked) [Example 1, carbamic acid 3-[4-(3,4-dimethoxy-phenyl)-piperazine-1-yl]-3-oxo-1-phenyl-propyl ester]	–

Further lines, the molecule ahead of its results:

SMILES	inhibition at 10 µM [1] [%]	inhibition at 10 µM [2] [%]	also measured
COc1ccc(N2CCN(C(=O)C[C@H](OC(N)=O)c3ccccc3)CC2)cc1OC [Example 7, (S)-carbamic acid 3-[4-(3,4-dimethoxy-phenyl)-piperazine-1-yl]-3-oxo-1-phenyl-propyl ester]	69	2	–
COc1ccc(N2CCN(C(=O)CC(OC(N)=O)c3ccc(F)cc3)CC2)cc1OC (centres unmarked) [Example 2, carbamic acid 3-[4-(3,4-dimethoxy-phenyl)-piperazine-1-yl]-1-(4-fluoro-phenyl)-3-oxo-propyl ester]	69	-5	–
COc1ccc(N2CCN(C(=O)CC(OC(N)=O)c3ccc(Cl)cc3)CC2)cc1OC (centres unmarked) [Example 10, carbamic acid 3-[4-(3,4-dimethoxy-phenyl)-piperazine-1-yl]-1-(4-chloro-phenyl)-3-oxo-propyl ester]	72	7	–
COc1ccc(N2CCN(C(=O)CC(OC(N)=O)c3ccc([N+](=O)[O-])cc3)CC2)cc1OC (centres unmarked) [Example 5, carbamic acid 3-[4-(3,4-dimethoxy-phenyl)-piperazine-1-yl]-1-(4-nitro-phenyl)-3-oxo-propyl ester]	75	0	–
COc1ccc(N2CCN(C(=O)C[C@@H](OC(N)=O)c3ccccc3)CC2)cc1OC [Example 8, (R)-carbamic acid 3-[4-(3,4-dimethoxy-phenyl)-piperazine-1-yl]-3-oxo-1-phenyl-propyl ester]	79	15	concentration of total cholesterol in serum ([3]; untreated diabetic 120±13, control 62±5 mg/dl): 66 ± 9 mg/dL; concentration of triglyceride in serum ([3]; untreated diabetic 760±162 mg/dl): 126 ± 44 mg/dL; expression level of fibronectin of the renal cortex (mRNA / beta actin mRNA) relative to control (fibronectin): 1.2±0.1 times; expression level of PAI-1 gene in the renal cortex relative to control (PAI-1): 1.1±0.2 times; expression level of MCP-1 gene in the renal cortex relative to control (MCP-1): 1.6±0.3 times; expression level of TGF-β1 gene in the renal cortex relative to control (TGF-β1): 1.3±0.2 times
COc1ccc(N2CCN(C(C)CC(OC(N)=O)c3ccccc3)CC2)cc1OC (centres unmarked) [Example 9, carbamic acid 3-[4-(3,4-dimethoxy-phenyl)-piperazine-1-yl]-1-phenyl-butyl ester]	62	0	–
COc1ccc(N2CCN(C(=O)CC(OC(N)=O)c3ccc(C(F)(F)F)cc3)CC2)cc1OC (centres unmarked) [Example 4, carbamic acid 3-[4-(3,4-dimethoxy-phenyl)-piperazine-1-yl]-1-(4-trifluoromethyl-phenyl)-3-oxo-propyl ester; hydrochloride]	48	0	–
